Results reported in article PMC8793051 (ACS Omega, 2022).

Tests used:
[1] = test system: oligo-1: d(CGCGAATTCGCG)2; experiment: UV thermal denaturation; format: binding
[2] = test system: oligo-2: d(CGATGTACATCG)2; experiment: UV thermal denaturation; format: binding
[3] = test system: oligo-2: d(CGATGTACATCG)2; experiment: Fluorescence titration; format: binding; conditions: 20 °C, pH 7.2
NIH3T3 = experiment: MTT cytotoxicity assay; format: cell-based; conditions: Mus musculus, NIH3T3, 48 h
K-562 = experiment: NCI-60 SRB growth assay; format: cell-based, human; conditions: Homo sapiens
MOLT-4 = experiment: NCI-60 SRB growth assay; format: cell-based, human
SR = experiment: NCI-60 SRB growth assay; format: cell-based, human
HOP-92 = experiment: NCI-60 SRB growth assay; format: cell-based, human
NCI-H460 = experiment: NCI-60 SRB growth assay; format: cell-based, human
NCI-H522 = experiment: NCI-60 SRB growth assay; format: cell-based, human
COLO 205 = experiment: NCI-60 SRB growth assay; format: cell-based, human; conditions: COLO 205
HCT-116 = experiment: NCI-60 SRB growth assay; format: cell-based, human; conditions: HCT-116
HCT-15 = experiment: NCI-60 SRB growth assay; format: cell-based, human; conditions: HCT-15
HT29 = experiment: NCI-60 SRB growth assay; format: cell-based, human
KM12 = experiment: NCI-60 SRB growth assay; format: cell-based, human
SF-295 = experiment: NCI-60 SRB growth assay; format: cell-based, human
U251 = experiment: NCI-60 SRB growth assay; format: cell-based, human
MDA-MB-435 = experiment: NCI-60 SRB growth assay; format: cell-based, human
UACC-62 = experiment: NCI-60 SRB growth assay; format: cell-based, human
IGROV1 = experiment: NCI-60 SRB growth assay; format: cell-based, human
OVCAR-3 = experiment: NCI-60 SRB growth assay; format: cell-based, human
OVCAR-5 = experiment: NCI-60 SRB growth assay; format: cell-based, human
786-0 = experiment: NCI-60 SRB growth assay; format: cell-based, human
A498 = experiment: NCI-60 SRB growth assay; format: cell-based, human
ACHN = experiment: NCI-60 SRB growth assay; format: cell-based, human
CAKI-1 = experiment: NCI-60 SRB growth assay; format: cell-based, human
RXF 393 = experiment: NCI-60 SRB growth assay; format: cell-based, human
PC-3 = experiment: NCI-60 SRB growth assay; format: cell-based, human
HS 578T = experiment: NCI-60 SRB growth assay; format: cell-based, human
BT-549 = experiment: NCI-60 SRB growth assay; format: cell-based, human; conditions: BT-549
MDA-MB-468 = experiment: NCI-60 SRB growth assay; format: cell-based, human; conditions: MDA-MB-468
[4] = test system: panel of 60 human cancer cell lines; experiment: cells; conditions: read-out: GI50 concentration range

## CCCCN1CCN(c2ccc3[nH]c(-c4ccc5[nH]c(-c6ccc(C(F)(F)F)cc6)nc5c4)nc3c2)CC1 [12b, 5-(5-(4-Butylpiperazin-1-yl)-1H-benzo[d]imidazol-2-yl)2(4(trifluoromethyl)phenyl)-1H-benzo[d]imidazole]
[1]; r = 0.5
  ΔTm: 3 °C
[1]; r = 0.5, oligo 2.5 μM
  Tm: 57.7 °C
[1]; r = 1
  Tm: 58.7 °C
  ΔTm: 4 °C
[1]; r = 1.5
  Tm: 59.7 °C
  ΔTm: 5 °C
[1]; r = 2.0
  Tm: 61.7 °C
  ΔTm: 7 °C
[2]; r = 0.5
  ΔTm: 1 °C
[2]; r = 0.5, oligo 2.5 μM
  Tm: 57.9 °C
[2]; r = 1
  Tm: 58.9 °C
  ΔTm: 2 °C
[2]; r = 1.5
  Tm: 58.9 °C
  ΔTm: 2 °C
[2]; r = 2.0
  Tm: 59.9 °C
  ΔTm: 3 °C
[3]
  Ka binding affinity with oligo-2: 2 × 10^6 M^1
NIH3T3
  IC50: 3.2 µM
K-562; K562
  GI50: 0.22 µM
K-562; K562, read-out: LC50
  CC50: > 100 µM
MOLT-4; Homo sapiens, MOLT-4
  GI50: 1.07 µM
MOLT-4; Homo sapiens, MOLT-4, read-out: LC50
  CC50: 6.3 µM
MOLT-4; MOLT-4
  TGI: 2.5 µM
SR
  TGI: 0.65 µM
SR; Homo sapiens
  GI50: 0.26 µM
HOP-92; HOP-92
  TGI: 2.78 µM
HOP-92; Homo sapiens, HOP-92
  GI50: 1.18 µM
HOP-92; Homo sapiens, HOP-92, read-out: LC50
  CC50: 6.5 µM
NCI-H460; Homo sapiens, NCI-H460
  GI50: 0.23 µM
NCI-H460; Homo sapiens, NCI-H460, read-out: LC50
  CC50: 1.62 µM
NCI-H460; NCI–H460
  TGI: 0.5 µM
NCI-H522; Homo sapiens, NCI-H522
  GI50: 1.6 µM
NCI-H522; NCI–H522
  TGI: 3.6 µM
COLO 205
  TGI: 3.1 µM
COLO 205; Homo sapiens
  GI50: 1.3 µM
HCT-116
  TGI: 0.42 µM
HCT-116; Homo sapiens
  GI50: 0.2 µM
HCT-15
  TGI: 0.74 µM
HCT-15; Homo sapiens
  GI50: 0.27 µM
HT29; HT29
  TGI: 1.42 µM
HT29; Homo sapiens, HT-29
  GI50: 0.34 µM
KM12; Homo sapiens, KM12
  GI50: 0.67 µM
KM12; Homo sapiens, KM12, read-out: LC50
  CC50: 4.9 µM
KM12; KM12
  TGI: 2.04 µM
SF-295; Homo sapiens, SF-295
  GI50: 1.34 µM
SF-295; Homo sapiens, SF-295, read-out: LC50
  CC50: 5.4 µM
SF-295; SF-265
  TGI: 2.7 µM
U251; Homo sapiens, U-251
  GI50: 0.24 µM
U251; U251
  TGI: 0.56 µM
MDA-MB-435; Homo sapiens, MDA-MB-435
  GI50: 1.4 µM
MDA-MB-435; Homo sapiens, MDA-MB-435, read-out: LC50
  CC50: 5.5 µM
MDA-MB-435; MDA-MB-435
  TGI: 2.8 µM
UACC-62; Homo sapiens, UACC-62
  GI50: 1.5 µM
UACC-62; Homo sapiens, UACC-62, read-out: LC50
  CC50: 5.8 µM
UACC-62; UACC-62
  TGI: 2.9 µM
IGROV1; Homo sapiens, IGROV-1
  GI50: 1.7 µM
IGROV1; IGROV1
  TGI: 3.4 µM
OVCAR-3; Homo sapiens, OVCAR-3
  GI50: 0.21 µM
OVCAR-3; Homo sapiens, OVCAR-3, read-out: LC50
  CC50: 0.73 µM
OVCAR-3; OVCAR-3
  TGI: 0.4 µM
OVCAR-5; Homo sapiens, OVCAR-5
  GI50: 1.8 µM
OVCAR-5; Homo sapiens, OVCAR-5, read-out: LC50
  CC50: 5.9 µM
OVCAR-5; OVCAR-5
  TGI: 3.5 µM
786-0; 786–0
  TGI: 3.04 µM
786-0; Homo sapiens, 786-0
  GI50: 1.47 µM
A498; A498
  TGI: 3.31 µM
A498; Homo sapiens, A498
  GI50: 1.69 µM
A498; Homo sapiens, A498, read-out: LC50
  CC50: 6.49 µM
ACHN
  TGI: 2.6 µM
ACHN; Homo sapiens
  GI50: 1.32 µM
ACHN; Homo sapiens, read-out: LC50
  CC50: 5.14 µM
CAKI-1; CAKI-1
  TGI: 2.58 µM
CAKI-1; Homo sapiens, CAKI-1
  GI50: 1.29 µM
CAKI-1; Homo sapiens, CAKI-1, read-out: LC50
  CC50: 5.15 µM
RXF 393; Homo sapiens, RXF 393
  GI50: 0.47 µM
RXF 393; RXF393
  TGI: 1.5 µM
PC-3; Homo sapiens, PC-3
  GI50: 0.86 µM
PC-3; Homo sapiens, PC-3, read-out: LC50
  CC50: 5.5 µM
PC-3; PC-3
  TGI: 2.31 µM
HS 578T; HS578T
  TGI: 3.05 - μM
HS 578T; Homo sapiens, Hs-578T
  GI50: 1.26 µM
BT-549
  TGI: 3.15 µM
BT-549; Homo sapiens
  GI50: 1.62 µM
MDA-MB-468; Homo sapiens
  GI50: 1.66 µM
MDA-MB-468
  TGI: 3.34 µM
[4]
  GI50: 0.16 to 3.6 µM
